{"source": "patent US9120819B2", "about": "“FGF-receptor agonist dimeric compounds” (SANOFI, priority 2006, dated 2015)", "key": {"[1]": {"system": "human vein endothelial cells (HUVECs)", "experiment": "In vitro angiogenesis model (HUVEC rearrangement on matrigel, pseudotubule length)", "type": "cell-based", "details": "at a concentration of 10 nM, 24 hours", "procedure": "In vitro Angiogenesis Model\nThe products are tested in terms of inducing the rearrangement of human vein endothelial cells (HUVECs) on matrigel (Becton dickinson 356230) diluted in collagen (rat tail collagen, type I: Becton dickinson 354236). After 24 hours, the cells are observed under the microscope with a X4 objective and the length of the pseudotubules is measured by means of an image analyser (BIOCOM-Visiolab 2000 software)."}, "FGF-R4α-hMp1": {"system": "FGF-R4α-hMp1", "experiment": "Baf/3-FGF-R4α proliferation model", "type": "cell-based, murine", "details": "at a concentration of 30 μM", "procedure": "(§1) Baf/3-FGFR1β or FGF-R4α Proliferation Model\n(§2) Obtaining the Chimeric Receptor Constructs\n(§3) The chimeric receptors are made up of the intracellular portion of hMp1 (NM_005373) and the transmembrane and extracellular domains of FGF-R1β or FGF-R4α.\n(§4) For each FGF receptor, the FGF-R (BamHI-SacI) and hMp1 (SacI-NotI) fragments are simultaneously cloned into the vector pEF6 (Invitrogen) digested with BamHI and NotI.\n(§5) Murine BaF/3 cells are transfected by electroporation. 20 μg of plasmid carrying the constructs FGF-R1β-hMp1 or FGF-R4α-hMp1 are mixed with 5×10^6 cells taken up in 800 μl of RPMI (invitrogen). The mixture is subjected to two electric shocks of 400 V with an interval of 0.1 ms. The cells are taken up for 48 h in an RPMI medium containing 10% FCS (foetal calf serum, gibco), glutamine (invitrogen), NEAA (nonessential amino acids, invitrogen), NaPyr (sodium pyruvate, invitrogen) and 10 ng/ml of IL-3, before being selected with 10 μg/ml of blasticidin (Cayla).\n(§6) Culture of Transfected Cells […]\n(§7) A confluent culture of BaF/3 cells carrying the chimeric receptors is passaged one-in-three in culture medium supplemented with IL-3 (10 ng/ml) for 24 h. […] The plates are incubated for 28 h at 37° C. and then 100 μl of Cell Titer Glo (Promega) are added and the amount of ATP is quantified using a luminometer (Luminoskan Ascent, Labsystems)."}, "FGF-R1β-hMp1": {"system": "FGF-R1β-hMp1", "experiment": "Baf/3-FGFR1β proliferation model", "type": "cell-based, murine", "details": "at a concentration of 30 μM", "procedure": "as §1, §2, §3, §4, §5, §6, §7"}, "C57 mice": {"system": "C57 mice", "experiment": "Model of post-ischaemic leg revascularization in mice", "type": "in vivo", "details": "30 mg/kg/day administered subcutaneously for 7 days", "procedure": "Model of Post-Ischaemic Leg Revascularization in Mice\nThe experiment is carried out on C57 mice (IFFA CREDO France).\nThe animals are anaesthetized by intraperitonal injection, in a volume of 10 ml/kg, of a solution of 50 mg/kg ketamine (Ketamine 1000 Virbac®, Virbac Carros France) and 10 mg/kg xylazine (Rompun 2%®, Bayer Pharma Puteaux France). The animal is placed so that it is lying on its back, and after shaving and disinfection of the skin by painting with Vetedine® solution (Vetoquinol S.A. Lure France), an incision is made in the inguinal region. The femoral artery is excized, the collateral arteries are cauterized and the external and circumflex iliac arteries are ligatured. The skin is sutured with separate stitches using non-resorbable thread. The animals are placed in the recovery room, the temperature of which is regulated at 25° C., until they are completely awake.\nThe distal perfusion is measured using a laser Doppler scanner (LDPI Lisca Perimed model PIM II, AB Sweden). This technique makes it possible to measure the cutaneous perfusion of the upper part of the back legs. […] Measurements are carried out successively on the healthy leg and on the leg rendered ischaemic in order to establish a perfusion deficit expressed as %. […]"}}, "data": [{"smiles": "COc1c(C)c(C(=O)c2ccc(N)c(C(=O)[O-])c2)n2cccc(OCCOCCOCCOCCOCCOCCOc3cccn4c(C(=O)c5ccc(N)c(C(=O)[O-])c5)c(C)c(OC)c34)c12.[Na+].[Na+]", "note": "[Example 2, disodium salt of 3,3′-{3,6,9,12,15-pentaoxaheptadecane-1,17-diylbis[oxy(1-methoxy-2-methylindolizine-8,3-diyl)carbonyl]}bis(6-aminobenzoic acid)]", "values": [{"measurement": "activity on the in vitro angiogenesis model", "setting": "[1]", "value": "active"}]}, {"smiles": "Cc1c(NC(=O)c2cccc(OCC(=O)NCCNC(=O)COc3cccc(C(=O)Nc4c(C)c(C(=O)c5ccc(N)c(C(=O)[O-])c5)n5ccccc45)c3)c2)c2ccccn2c1C(=O)c1ccc(N)c(C(=O)[O-])c1.[Na+].[Na+]", "note": "[Example 44]", "values": [{"measurement": "activity on the Baf/3-FGF-R4α proliferation", "setting": "FGF-R4α-hMp1", "value": "active"}, {"measurement": "activity on the Baf/3-FGFR1β proliferation", "setting": "FGF-R1β-hMp1", "value": "active"}]}, {"smiles": "Cc1c(OCCOCCOCCOCCOCCOCCOCCOc2c(C)c(C(=O)c3ccc(N)c(C(=O)[O-])c3)n3ccccc23)c2ccccn2c1C(=O)c1ccc(N)c(C(=O)[O-])c1.[Na+].[Na+]", "note": "[Example 21, Disodium salt of 3,3′-{3,6,9,12,15,18-hexaoxaicosane-1,20-diylbis[oxy(2-methylindolizine-1,3-diyl)carbonyl]}bis(6-aminobenzoic acid)]", "values": [{"measurement": "activity in the ischaemic leg model (post-ischaemic perfusion recovery)", "setting": "C57 mice", "value": "significant activity"}]}, {"smiles": "COc1cc(C(=O)c2nc(-c3cccc(C(=O)[O-])c3)c3c(OCCOCCOCCOCCOCCOCCOc4cccn5c(C(=O)c6ccc(N)c(OC)c6)nc(-c6cccc(C(=O)[O-])c6)c45)cccn23)ccc1N.[Na+].[Na+]", "note": "[Example 8, Disodium salt of 3,3′-(3,6,9,12,15-pentaoxaheptadecane-1,17-diylbis{oxy[3-(4-amino-3-methoxybenzoyl)imidazo[1,5-a]pyridine-8,1-diyl]})dibenzoic acid]", "values": [{"measurement": "activity on the in vitro angiogenesis model", "setting": "[1]", "value": "active"}]}]}
